Source: ChEMBL document CHEMBL3301472, “MMV Malaria Box HIV and cytotoxicity screening”

Assays:
[1] = test system: Human immunodeficiency virus 1; experiment: MMV: HIV CXCR4-tropic env NL4-3 pseudovirus assay produces luciferase signal in lieu of replicating viral particles Day 3 pi, U87-CD4-CXCR4, % inhibition at 5 mM compound; format: functional; set-up: dose or concentration left out as unconfirmed; details: Human immunodeficiency virus 1, NL4-3, U87.CD4.CXCR4, 72 h
[2] = MMV: MTT Cytotoxicity Assay Day 3 pi, U87-CD4-CCR5 cells, % cell death @ 5mM compound; format: toxicity, cell-based; details: human, u87-cd4-ccr5, 5000 µM
[3] = MMV: MTT Cytotoxicity Assay Day 3 pi, U87-CD4-CXCR4 cells, % cell death @ 5mM compound; format: toxicity, cell-based; details: human, u87-cd4-cxcr4, 5000 µM
[4] = MMV: MTT Cytotoxicity Assay Day 7 pi of Assay #6 (compound washed out Day 1 pi), U87-CD4-CCR5 cells, % cell death @ 5mM compound; format: toxicity, cell-based; details: human, u87-cd4-ccr5, 5000 µM
[5] = MMV: MTT Cytotoxicity Assay Day 7 pi of Assay #7 (compound washed out Day 1 pi), U87-CD4-CXCR4 cells, % cell death @ 5mM compound; format: toxicity, cell-based; details: human, u87-cd4-cxcr4, 5000 µM
[6] = MMV: MTT Cytotoxicity Assay Day 7 pi of Assay #10 (NO washout), U87-CD4-CCR5 cells, % cell death @ 5mM compound; format: toxicity, cell-based; details: human, u87-cd4-ccr5, 5000 µM
[7] = MMV: MTT Cytotoxicity Assay Day 7 pi of Assay #11 (NO washout), U87-CD4-CXCR4 cells, % cell death @ 5mM compound; format: toxicity, cell-based; details: human, u87-cd4-cxcr4, 5000 µM
[8] = test system: Human immunodeficiency virus 1; experiment: MMV: HIV JRFL CCR5-tropic replication-competent virus, virus & compound washed out Day 1 pi, P24 ELISA Day 7 pi, U87-CD4-CCR5, % inhibition at 5 mM compound; format: functional; set-up: dose or concentration left out as unconfirmed; details: Human immunodeficiency virus 1, JR-FL

SMILES | inhibition [1] | % Cell Death [2] | % Cell Death [3] | % Cell Death [4] | % Cell Death [5] | % Cell Death [6] | % Cell Death [7] | inhibition [8]
OC(CNCC1CCCO1)Cn1c2ccc(Cl)cc2c2cc(Cl)ccc21 (stereo not drawn) | 0% | 11 | 15 | 26 | -28 | -2 | -7 | –
COc1ccc(-c2nc(N3CCN(C(=O)C4CCCCC4)CC3)c3c4c(sc3n2)CCCC4)cc1 | – | 2 | 46 | -3 | -26 | 113 | 104 | 5%
Cc1cc(C)cc(Nc2cc(C)nc3nc(C(F)(F)F)nn23)c1 | 7% | 10 | 26 | 29 | -6 | -23 | -5 | –
O=C(Nc1ccc(Br)cc1)Nc1cccc(Cl)c1 | 9% | 9 | 22 | 8 | -4 | 44 | 64 | –
CCCCCC(=O)N1c2ccccc2N=C2CC(c3ccc(OC)c(OC)c3)CC(O)=C2C1c1ccc(C(F)(F)F)cc1 (stereo not drawn) | 2% | 11 | 14 | 5 | -21 | 16 | -20 | –
CN(C)CCNc1cc(-c2ccccc2)nc2ccccc12 | 5% | 26 | 18 | 6 | -12 | 71 | 85 | –
COc1ccc2nc(C)cc(Nc3cccc(O)c3)c2c1.Cl | 7% | 16 | 39 | 10 | 0 | 43 | 76 | –
COc1cccc(NC(=O)[C@H](C(C)C)n2c(=O)[nH]c3ccccc3c2=O)c1 | 0% | 24 | 20 | 24 | 5 | 27 | 7 | –
COc1cccc(NC(=O)Cn2c(C)c(C#N)c3ccccc32)c1 | 8% | 23 | 47 | 29 | -5 | 12 | -1 | –
CCOc1cc2c(cc1OCC)C(c1cc(OC)c(O)cc1Cl)NCC2 (stereo not drawn) | 10% | 31 | 1 | 7 | -19 | 25 | 20 | –
FC(F)(F)c1cccc(Nc2nc(-c3ccccc3)nc3ncccc23)c1 | 9% | 1 | -16 | 0 | 15 | 19 | -17 | –
Cc1ccnc(NC(c2cccc(OCc3ccccc3)c2)c2ccc3cccnc3c2O)c1 (stereo not drawn) | 1% | 19 | -12 | 49 | 37 | -16 | 27 | –
CC(NCc1ccccc1)c1cc(Cl)ccc1O (stereo not drawn) | 6% | 1 | 6 | -2 | -15 | 26 | -3 | –
Cn1c(C(=O)c2cccc3ccccc23)nc2ccccc21 | 9% | -32 | 32 | -37 | -12 | 2 | -77 | –
COc1ccc(C2NCCc3c2[nH]c2ccccc32)cc1CN1CCN(c2ccc(F)cc2)CC1.Cl (stereo not drawn) | 3% | 27 | 35 | 24 | -8 | 14 | -62 | –
CCn1c(CN2CCN(Cc3ccccc3)CC2)nc2cc(NC(=O)c3cccs3)ccc21 | 1% | 21 | 21 | 12 | -27 | 10 | -27 | –
Cc1ccc2cc3c(N)c4c(C)ccc(C)c4nc3nc2c1 | 5% | -9 | -14 | 46 | -5 | 18 | 31 | –

SMILES | inhibition [1] | % Cell Death [2] | % Cell Death [3] | % Cell Death [4] | % Cell Death [5] | % Cell Death [6] | % Cell Death [7] | inhibition [8]
c1ccc2c(NCCc3c[nH]c4ccccc34)c3ccccc3nc2c1 | – | 64 | 62 | 29 | -4 | 20 | 42 | 5%
CCN(CC)CCCNc1ccnc2cc3ccccc3cc12 | 5% | 41 | 35 | 51 | 55 | 60 | 85 | –
Cl.Oc1ccccc1CNCC12CC3CC(CC(C3)C1)C2 | 3% | -8 | 15 | 20 | -11 | 37 | -2 | –
Cc1ccc(-c2nc3ccccc3o2)cc1NCc1cc(Cc2ccccc2)ccc1O | – | 27 | 15 | -7 | -11 | 13 | 52 | 8%
CC1CCN(Cc2ccc(NC(=O)c3cc4ccc5cccnc5c4[nH]3)cc2)CC1 | -1% | 9 | 23 | 17 | -14 | 3 | -7 | –
CCOc1cc2c(cc1OCC)C(c1cc(C)c(O)c(C)c1)NCC2.Cl (stereo not drawn) | 5% | 4 | 16 | 18 | -10 | -3 | -11 | –
CCN(CC)c1cc(C)c2cc(NC(=O)c3cccc(OC)c3)ccc2n1 | 7% | -1 | 5 | 3 | -25 | 39 | -2 | –
Cc1ccc(NC(=O)Nc2cccc(Cl)c2)cc1F | 0% | -7 | 26 | 12 | -22 | 8 | -5 | –
CSc1ccccc1C(=O)Nc1nc(-c2ccccn2)cs1 | 4% | 28 | 86 | 18 | 28 | 3 | 2 | –
CCCOCc1cc(CN2CCN(c3cccc(Cl)c3)CC2)c(O)c2ncccc12 | – | 24 | 31 | -8 | -7 | 15 | -57 | 9%
O=C(Cc1ccccc1)NC(c1ccc(Cl)cc1)c1c(O)ccc2ccccc12 (stereo not drawn) | 3% | 11 | 23 | 18 | -8 | 2 | -16 | –
Cc1cc(Nc2ccc(Cl)cc2)n2nc(C(F)(F)F)nc2n1 | 2% | 27 | 12 | 46 | -20 | 56 | -18 | –
COc1ccc(CN2CCN(Cc3ccccc3)CC2)c(O)c1 | -2% | 16 | -16 | -1 | 53 | 4 | 10 | –
COc1ccc(C(C)=O)cc1N1C(=O)C2C(C1=O)C1(c3ccccc3)C(=O)C2(c2ccccc2)C(c2ccc(C)cc2)=C1c1ccc(C)cc1 (stereo not drawn) | 3% | 28 | 39 | 2 | 14 | 16 | 5 | –
CCCCCCc1cc2cc(-c3nc4ccccc4[nH]3)c(=Nc3ccccc3C)oc2cc1O | – | 31 | 25 | 15 | -2 | 44 | 53 | 4%
Br.Cc1ccc(C)c(-c2csc(Nc3ccc(C)c(C)c3)n2)c1 | -1% | -10 | 21 | 5 | 39 | 48 | 28 | –
O=C(Nc1cccc(C2=NCCN2)c1)Nc1cccc(C2=NCCN2)c1 [IMIDOCARB] | – | 31 | 63 | -6 | 15 | 63 | 65 | 7%
